ChEMBL document CHEMBL4270599, “Synthesis of a 3'-C-ethynyl-β-d-ribofuranose purine nucleoside library: Discovery of C7-deazapurine analogs as potent antiproliferative nucleosides” (Eur J Med Chem, 2018)

What was measured:
Format in all cases: functional
[1] = test system: SN12C; assay: Growth inhibition of human SN12C cells assessed as cell growth at 10^-5 M incubated for 48 hrs by sulforhodamine B assay relative to control; settings: read-out: Activity
[2] = test system: HL-60(TB); assay: Cytotoxicity against human HL-60(TB) cells after 48 hrs by SRB assay; settings: HL-60, 48 h
[3] = test system: Hs-578T; assay: Growth inhibition of human Hs 578T cells assessed as cell growth at 10^-5 M incubated for 48 hrs by sulforhodamine B assay relative to control; settings: read-out: Activity
[4] = test system: NCI-H322M; assay: Growth inhibition of human NCI-H322M cells assessed as cell growth at 10^-8 M incubated for 48 hrs by sulforhodamine B assay relative to control; settings: read-out: Activity
[5] = test system: NCI-H226; assay: Growth inhibition of human NCI-H226 cells assessed as cell growth at 10^-7 M incubated for 48 hrs by sulforhodamine B assay relative to control; settings: NCI-H226, 48 h, read-out: Activity
[6] = test system: K562; assay: Growth inhibition of human K562 cells assessed as cell growth at 10^-5 M incubated for 48 hrs by sulforhodamine B assay relative to control; settings: K562, 48 h, read-out: Activity
[7] = test system: OVCAR-3; assay: Growth inhibition of human OVCAR3 cells assessed as cell growth at 10^-8 M incubated for 48 hrs by sulforhodamine B assay relative to control; settings: OVCAR-3, 48 h, read-out: Activity
[8] = test system: MOLT-4; assay: Growth inhibition of human MOLT4 cells assessed as cell growth at 10^-7 M incubated for 48 hrs by sulforhodamine B assay relative to control; settings: MOLT-4, 48 h, read-out: Activity
[9] = test system: HT-29; assay: Growth inhibition of human HT-29 cells assessed as cell growth at 10^-4 M incubated for 48 hrs by sulforhodamine B assay relative to control; settings: HT-29, 48 h, read-out: Activity
[10] = test system: A549; assay: Growth inhibition of human A549/ATCC cells assessed as cell growth at 10^-8 M incubated for 48 hrs by sulforhodamine B assay relative to control; settings: A549, 48 h, read-out: Activity
[11] = test system: HCT-116; assay: Growth inhibition of human HCT116 cells assessed as cell growth at 10^-4 M incubated for 48 hrs by sulforhodamine B assay relative to control; settings: HCT-116, 48 h, read-out: Activity
[12] = test system: UACC-257; assay: Cytotoxicity against human UACC257 cells after 48 hrs by SRB assay; settings: UACC-257, 48 h
[13] = test system: MOLT-4; assay: Growth inhibition of human MOLT4 cells assessed as cell growth at 10^-8 M incubated for 48 hrs by sulforhodamine B assay relative to control; settings: MOLT-4, 48 h, read-out: Activity
[14] = test system: NCI/ADR-RES; assay: Growth inhibition of human NCI/ADR-RES cells assessed as cell growth at 10^-5 M incubated for 48 hrs by sulforhodamine B assay relative to control; settings: read-out: Activity
[15] = test system: SK-MEL-5; assay: Cytotoxicity against human SK-MEL-5 cells after 48 hrs by SRB assay; settings: SK-MEL-5, 48 h
[16] = test system: RPMI-8226; assay: Growth inhibition of human RPMI8226 cells assessed as cell growth at 10^-8 M incubated for 48 hrs by sulforhodamine B assay relative to control; settings: RPMI-8226, 48 h, read-out: Activity
[17] = test system: HCT-116; assay: Growth inhibition of human HCT116 cells assessed as cell growth at 10^-8 M incubated for 48 hrs by sulforhodamine B assay relative to control; settings: HCT-116, 48 h, read-out: Activity
[18] = test system: NCI-H522; assay: Cytotoxicity against human NCI-H522 cells after 48 hrs by SRB assay; settings: NCI-H522, 48 h
[19] = test system: KM12; assay: Growth inhibition of human KM12 cells assessed as cell growth at 10^-5 M incubated for 48 hrs by sulforhodamine B assay relative to control; settings: KM12, 48 h, read-out: Activity
[20] = test system: HOP-92; assay: Growth inhibition of human HOP92 cells assessed as cell growth at 10^-8 M incubated for 48 hrs by sulforhodamine B assay relative to control; settings: HOP-92, 48 h, read-out: Activity
[21] = test system: OVCAR-3; assay: Growth inhibition of human OVCAR3 cells assessed as cell growth at 10^-7 M incubated for 48 hrs by sulforhodamine B assay relative to control; settings: OVCAR-3, 48 h, read-out: Activity
[22] = test system: OVCAR-3; assay: Cytotoxicity against human OVCAR3 cells after 48 hrs by SRB assay; settings: OVCAR-3, 48 h
[23] = test system: UO-31; assay: Growth inhibition of human UO31 cells assessed as cell growth at 10^-7 M incubated for 48 hrs by sulforhodamine B assay relative to control; settings: UO-31, 48 h, read-out: Activity
[24] = test system: SN12C; assay: Growth inhibition of human SN12C cells assessed as cell growth at 10^-8 M incubated for 48 hrs by sulforhodamine B assay relative to control; settings: read-out: Activity
[25] = test system: IGROV-1; assay: Cytotoxicity against human IGROV1 cells after 48 hrs by SRB assay; settings: IGROV-1, 48 h
[26] = test system: NCI-H322M; assay: Growth inhibition of human NCI-H322M cells assessed as cell growth at 10^-7 M incubated for 48 hrs by sulforhodamine B assay relative to control; settings: read-out: Activity
[27] = test system: NCI/ADR-RES; assay: Growth inhibition of human NCI/ADR-RES cells assessed as cell growth at 10^-8 M incubated for 48 hrs by sulforhodamine B assay relative to control; settings: read-out: Activity
[28] = test system: IGROV-1; assay: Growth inhibition of human IGROV1 cells assessed as cell growth at 10^-8 M incubated for 48 hrs by sulforhodamine B assay relative to control; settings: IGROV-1, 48 h, read-out: Activity
[29] = test system: OVCAR-8; assay: Growth inhibition of human OVCAR8 cells assessed as cell growth at 10^-6 M incubated for 48 hrs by sulforhodamine B assay relative to control; settings: OVCAR-8, 48 h, read-out: Activity
[30] = test system: 786-0; assay: Cytotoxicity against human 786-0 cells after 48 hrs by SRB assay; settings: 786-0, 48 h
[31] = test system: OVCAR-8; assay: Cytotoxicity against human OVCAR8 cells after 48 hrs by SRB assay; settings: OVCAR-8, 48 h
[32] = test system: SF-295; assay: Cytotoxicity against human SF295 cells after 48 hrs by SRB assay; settings: SF-295, 48 h
[33] = read-out: pLC50 (the source's name) (converted)
[34] = read-out: LC50 (the source's name)

SMILES: C#C[C@@]1(O)[C@@H](CO)O[C@@H](n2ccc3c(N)ncnc32)[C@@H]1O
- growth at 10 µM [1]: -31%
- TGI ([2]; read-out: TGI): 5.49 µM
- GI50 ([2]; read-out: pGI50 (converted)): 1.58 µM
- CC50 [2, 33]: > 100 µM
- TGI ([2]; read-out: pTGI (converted)): 5.5 µM
- growth at 10 µM [3]: 19%
- growth at 0.01 µM [4]: 99%
- growth at 0.1 µM [5]: 111%
- growth at 10 µM [6]: 6%
- growth at 0.01 µM [7]: 105%
- growth at 0.1 µM [8]: 95%
- growth at 100 µM [9]: -17%
- growth at 0.01 µM [10]: 100%
- growth at 100 µM [11]: -54%
- TGI ([12]; read-out: TGI): 7.05 µM
- GI50 ([12]; read-out: pGI50 (converted)): 2.29 µM
- CC50 [12, 33]: 55 µM
- TGI ([12]; read-out: pTGI (converted)): 7.08 µM
- growth at 0.01 µM [13]: 96%
- growth at 10 µM [14]: -7%
- TGI ([15]; read-out: TGI): 2.96 µM
- GI50 ([15]; read-out: pGI50 (converted)): 1.55 µM
- CC50 [15, 33]: 5.62 µM
- TGI ([15]; read-out: pTGI (converted)): 2.95 µM
- growth at 0.01 µM [16]: 103%
- growth at 0.01 µM [17]: 91%
- CC50 [18, 34]: > 100 µM
- TGI ([18]; read-out: TGI): 3.82 µM
- GI50 ([18]; read-out: pGI50 (converted)): 0.372 µM
- TGI ([18]; read-out: pTGI (converted)): 3.8 µM
- growth at 10 µM [19]: 2%
- growth at 0.01 µM [20]: 92%
- growth at 0.1 µM [21]: 106%
- TGI ([22]; read-out: TGI): 12 µM
- GI50 ([22]; read-out: pGI50 (converted)): 2.95 µM
- CC50 [22, 33]: > 100 µM
- TGI ([22]; read-out: pTGI (converted)): 12 µM
- growth at 0.1 µM [23]: 105%
- growth at 0.01 µM [24]: 94%
- CC50 [25, 34]: > 100 µM
- TGI ([25]; read-out: TGI): 5.85 µM
- GI50 ([25]; read-out: pGI50 (converted)): 1.45 µM
- TGI ([25]; read-out: pTGI (converted)): 5.89 µM
- growth at 0.1 µM [26]: 94%
- growth at 0.01 µM [27]: 97%
- growth at 0.01 µM [28]: 101%
- growth at 1 µM [29]: 51%
- TGI ([30]; read-out: TGI): 6.15 µM
- GI50 ([30]; read-out: pGI50 (converted)): 1.62 µM
- LC50 (lethal concentration, 50% cell kill) ([30]; read-out: pLC50 (converted)): 25.7 µM
- TGI ([30]; read-out: pTGI (converted)): 6.17 µM
- TGI ([31]; read-out: TGI): 4.11 µM
- GI50 ([31]; read-out: pGI50 (converted)): 1.02 µM
- CC50 [31, 33]: 34.7 µM
- TGI ([31]; read-out: pTGI (converted)): 4.07 µM
- TGI ([32]; read-out: TGI): 5.33 µM
- GI50 ([32]; read-out: pGI50 (converted)): 1.74 µM
- CC50 [32, 33]: > 100 µM
- TGI ([32]; read-out: pTGI (converted)): 5.37 µM
